According to patent publication US6455727B1, “Process for preparing carbetapentane tannate” (Jame Fine Chemicals, Inc., priority 2001, dated 2002):
Where a name gives a salt, the structure may show the parent alone. Read-outs that look alike come from different tables or passages of the source.

How the values were obtained:
[1] = background statement, cited from earlier work; for solubility in alcohol: alcohol(s)
[2] = solubility in water, alcohols and methylene chloride; type: physicochemical; conditions: description of product and starting materials

Row | solubility in alcohols [2] | solubility in methylene chloride [2] | solubility in water [2] | Molecule | solubility in alcohol [1] | solubility in water [1]
1 |  |  |  | CCN(CC)CCOCCOC(=O)C1(c2ccccc2)CCCC1 [carbetapentane citrate] | slightly soluble | freely soluble
2 | soluble | soluble | insoluble | CCN(CC)CCOCCOC(=O)C1(c2ccccc2)CCCC1 [carbetapentane, 2-(diethylaminoethoxy)ethyl-1-phenyl-1-cyclopentanecarboxylate] |  | insolubility
3 | soluble | insoluble | soluble | O=C(OC[C@H]1O[C@@H](OC(=O)c2cc(O)c(O)c(OC(=O)c3cc(O)c(O)c(O)c3)c2)[C@H](OC(=O)c2cc(O)c(O)c(OC(=O)c3cc(O)c(O)c(O)c3)c2)[C@@H](OC(=O)c2cc(O)c(O)c(OC(=O)c3cc(O)c(O)c(O)c3)c2)[C@@H]1OC(=O)c1cc(O)c(O)c(OC(=O)c2cc(O)c(O)c(O)c2)c1)c1cc(O)c(O)c(OC(=O)c2cc(O)c(O)c(O)c2)c1 [tannic acid] | highly soluble | highly soluble
4 | soluble | insoluble | slightly soluble | carbetapentane tannate |  | 
